Holding throughout (assay type): in vivo
Assay [1] has as its system ABCA1. The assay can be described thus: ABCA1 expression by macrophages of treated apoE-deficient mice (Western blotting). Particulars: 0.6 nmol/kg/h, four weeks; range given jointly for ABCA1, ABCG1, SR-BI; P<0.05. As for the experimental part:
(§1) 13-week-old male apoE-deficient mice (72 mice) were divided into the following 6 groups: (i) physiological salt saline (control); (ii) salusin-α (0.6 nmol/kg/h); (iii) salusin-β (0.6 nmol/kg/h); (iv) salusin-α (0.6 nmol/kg/h)+anti-salusin-α serum (1.4 μg/kg/h); (v) salusin-β (0.6 nmol/kg/h)+anti-salusin-β serum (1.4 μg/kg/h); and (vi) anti-salusin-β serum (1.4 μg/kg/h). The mice were subjected to continuous subcutaneous administration with the use of an osmotic mini-pump for 4 to 8 weeks. The osmotic mini-pump and the solution contained therein were changed every week.
(§2) Macrophages were collected as in the experiment in (1), and the protein expression of the gene involved in foaming of macrophages (i.e., scavenger receptors CD36 and SR-A capable of recognizing oxidized LDL, intracellular cholesterol esterification enzyme ACAT1, and ABCA1, ABCG1, and SR-BI, which are involved in cholesterol efflux) was analyzed by Western blotting. For the internal standard of the macrophage function, β-actin expression was also examined. For quantification of the band concentration, Analyzer (ATTO Corporation, Tokyo) was used.
(A western blot detects proteins with antibodies after separation by electrophoresis.)

Assay [2] relates to macrophages of apoE-deficient mice. The assay can be described thus: Cholesterol efflux caused by HDL in macrophages collected from treated apoE-deficient mice. To be noted: 0.6 nmol/kg/h, four weeks; P<0.01. As for the experimental part:
as §1
Macrophages collected in the above manner were kept warm for 24 hours in a culture solution prepared as above containing oxidized LDL (10 μg/ml) labeled with [^3H]cholesterol (74 kBq/mL) and washed twice with PBS. Thereafter, the macrophages were kept warm for 16 hours in an RPMI1640 solution containing 0.1% BSA to which HDL (15 μg/mL) had been added. The culture solution was centrifuged at 15,000 rpm for 10 minutes so as to remove the residues therefrom. […] The radioactivity of [^3H]cholesterol in the culture solution and that in the cell extraction solution were assayed: cholesterol efflux (%)=the radioactivity of [^3H]cholesterol in the culture solution/the radioactivity of [^3H]cholesterol in the culture solution+the radioactivity of [^3H]cholesterol in the cell extraction solution×100

In assay [3] the test system is SR-BI. Nature of the assay: SR-BI expression by macrophages of treated apoE-deficient mice (Western blotting). To be noted: 0.6 nmol/kg/h, four weeks; range given jointly for ABCA1, ABCG1, SR-BI; P<0.05. As to the method: as §1, §2
Assay [4] relates to ACAT1. The assay can be described thus: ACAT1 expression by macrophages of treated apoE-deficient mice (Western blotting). To be noted: four weeks, P<0.05. As for the experimental part: as §1, §2
The subject of assay [5] is ABCG1. Nature of the assay: ABCG1 expression by macrophages of treated apoE-deficient mice (Western blotting). Particulars: 0.6 nmol/kg/h, four weeks; range given jointly for ABCA1, ABCG1, SR-BI; P<0.05. As to the method: as §1, §2

On to “salusin-α: peptide (SEQ ID NO: 1) comprising 28 amino acid residues, generated by processing from preprosalusin (SGALPPAPAAPRPALRAQRAGPAGPGAK; listed as Homo sapiens)”, for which, in assay [1], the “ABCA1 protein expression relative to initial level” value was in the range of 1.5 to 2 times. The “cholesterol efflux caused by HDL relative to control” value in assay [2] is on record as “approximately 2 times”. Moreover, the “SR-BI protein expression relative to initial level” value in assay [3] is 1.5 to 2 times. The “ACAT1 protein expression relative to initial level” value in assay [4] (salusin-α 0.6 nmol/kg/h) was “approximately half”. The “ABCG1 protein expression relative to initial level” value in assay [5] was 1.5 to 2 times.

With “salusin-β: peptide (SEQ ID NO: 3) comprising 20 amino acid residues, generated by processing from preprosalusin (AIFIFIRWLLKLGHHGRAPP; listed as Homo sapiens) [reference compound]”, the “ACAT1 protein expression relative to control level” value in assay [4] (0.6 nmol/kg/h, range given jointly for CD36, SR-A, ACAT1) was 1.5 to 2.8 times.

The record behind these values is patent US20110165173A1, “THERAPEUTIC AGENT AND DETECTION REAGENT FOR ARTERIOSCLEROTIC DISEASE WHICH TARGETS FOR SALUSIN” (PROTEINEXPRESS CO., LTD., priority 2007, published 2011).
